Assay results as given in PubChem BioAssay (NCI).
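Grown in 96-well plates, cells were treated for 48 hours with each compound at five concentrations. Insufficient inhibition: endpoint recorded as highest concentration tested. At the TGI there is no net growth.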

Legend:
Assay in all cases: NCI anticancer screen, dose series, 48 h
786-0 renal = test system: 786-0 renal
A549 NSCLC = test system: A549 NSCLC
ACHN renal = test system: ACHN renal
BT-549 breast = test system: BT-549 breast
CAKI-1 renal = test system: CAKI-1 renal
CCRF-CEM leukemia = test system: CCRF-CEM leukemia
COLO 205 colon = test system: COLO 205 colon
DU-145 prostate = test system: DU-145 prostate
EKVX NSCLC = test system: EKVX NSCLC
HCC-2998 colon = test system: HCC-2998 colon
HCT-116 colon = test system: HCT-116 colon
HCT-15 colon = test system: HCT-15 colon
HL-60(TB) leukemia = test system: HL-60(TB) leukemia
HOP-62 NSCLC = test system: HOP-62 NSCLC
HOP-92 NSCLC = test system: HOP-92 NSCLC
HS 578T breast = test system: HS 578T breast
HT29 colon = test system: HT29 colon
IGROV1 ovarian = test system: IGROV1 ovarian
K-562 leukemia = test system: K-562 leukemia
KM12 colon = test system: KM12 colon
LOX IMVI melanoma = test system: LOX IMVI melanoma
MALME-3M melanoma = test system: MALME-3M melanoma
MCF7 breast = test system: MCF7 breast
MDA-MB-231 breast = test system: MDA-MB-231 breast
MDA-MB-435 = test system: MDA-MB-435
MDA-N = test system: MDA-N
MOLT-4 leukemia = test system: MOLT-4 leukemia
NCI-H226 lung = test system: NCI-H226 lung
NCI-H460 lung = test system: NCI-H460 lung
NCI-H522 lung = test system: NCI-H522 lung
NCI/ADR-RES ovarian = test system: NCI/ADR-RES ovarian
OVCAR-4 ovarian = test system: OVCAR-4 ovarian
OVCAR-8 ovarian = test system: OVCAR-8 ovarian
PC-3 prostate = test system: PC-3 prostate
RPMI-8226 leukemia = test system: RPMI-8226 leukemia
RXF 393 renal = test system: RXF 393 renal
SF-268 CNS = test system: SF-268 CNS
SF-539 CNS = test system: SF-539 CNS
SK-MEL-2 melanoma = test system: SK-MEL-2 melanoma
SK-MEL-28 melanoma = test system: SK-MEL-28 melanoma
SK-MEL-5 melanoma = test system: SK-MEL-5 melanoma
SN12C renal = test system: SN12C renal
SNB-19 CNS = test system: SNB-19 CNS
SNB-75 CNS = test system: SNB-75 CNS
SR leukemia = test system: SR leukemia
SW-620 colon = test system: SW-620 colon
T-47D breast = test system: T-47D breast
TK-10 renal = test system: TK-10 renal
U251 CNS = test system: U251 CNS
UACC-257 melanoma = test system: UACC-257 melanoma
UACC-62 melanoma = test system: UACC-62 melanoma
UO-31 renal = test system: UO-31 renal
A498 renal = test system: A498 renal
M14 melanoma = test system: M14 melanoma
NCI-H23 lung = test system: NCI-H23 lung
OVCAR-3 ovarian = test system: OVCAR-3 ovarian
OVCAR-5 ovarian = test system: OVCAR-5 ovarian
SF-295 CNS = test system: SF-295 CNS
SK-OV-3 ovarian = test system: SK-OV-3 ovarian

SMILES: CCOC(=O)C(NC(=O)c1cccc(Cl)c1)(Nc1cccc(C)c1)C(F)(F)F (configuration not stated)
- TGI (786-0 renal): 47 µM
- TGI (A549 NSCLC): > 100 µM
- TGI (ACHN renal): 29.8 µM
- TGI (BT-549 breast): 26.1 µM
- TGI (CAKI-1 renal): 47.5 µM
- TGI (CCRF-CEM leukemia): > 100 µM
- TGI (COLO 205 colon): 36.2 µM
- TGI (DU-145 prostate): 99.6 µM
- TGI (EKVX NSCLC): 63.1 µM
- TGI (HCC-2998 colon): 31.4 µM
- TGI (HCT-116 colon): 33.4 µM
- TGI (HCT-15 colon): 31.2 µM
- TGI (HL-60(TB) leukemia): > 100 µM
- TGI (HOP-62 NSCLC): 36.2 µM
- TGI (HOP-92 NSCLC): 29 µM
- TGI (HS 578T breast): 49.4 µM
- TGI (HT29 colon): 27.8 µM
- TGI (IGROV1 ovarian): 34.8 µM
- TGI (K-562 leukemia): > 100 µM
- TGI (KM12 colon): 30.1 µM
- TGI (LOX IMVI melanoma): 30.7 µM
- TGI (MALME-3M melanoma): 30.4 µM
- TGI (MCF7 breast): 39 µM
- TGI (MDA-MB-231 breast): 41.6 µM
- TGI (MDA-MB-435): 43.8 µM
- TGI (MDA-N): 38.8 µM
- TGI (MOLT-4 leukemia): 67.8 µM
- TGI (NCI-H226 lung): 30.7 µM
- TGI (NCI-H460 lung): 47.6 µM
- TGI (NCI-H522 lung): 20.5 µM
- TGI (NCI/ADR-RES ovarian): 38.8 µM
- TGI (OVCAR-4 ovarian): 62.8 µM
- TGI (OVCAR-8 ovarian): 61 µM
- TGI (PC-3 prostate): 43.6 µM
- TGI (RPMI-8226 leukemia): > 100 µM
- TGI (RXF 393 renal): 26.2 µM
- TGI (SF-268 CNS): 58.9 µM
- TGI (SF-539 CNS): 32.7 µM
- TGI (SK-MEL-2 melanoma): 31.8 µM
- TGI (SK-MEL-28 melanoma): 35.1 µM
- TGI (SK-MEL-5 melanoma): 30.9 µM
- TGI (SN12C renal): 50.8 µM
- TGI (SNB-19 CNS): > 100 µM
- TGI (SNB-75 CNS): 43.9 µM
- TGI (SR leukemia): > 100 µM
- TGI (SW-620 colon): 37.2 µM
- TGI (T-47D breast): 54.5 µM
- TGI (TK-10 renal): > 100 µM
- TGI (U251 CNS): 79.3 µM
- TGI (UACC-257 melanoma): 71.5 µM
- TGI (UACC-62 melanoma): 28.5 µM
- TGI (UO-31 renal): 32.7 µM

SMILES: O=c1c2cc([N+](=O)[O-])ccc2oc2nc3n(c(=O)c12)CCCS3
- TGI (786-0 renal): > 100 µM
- TGI (A498 renal): > 100 µM
- TGI (A549 NSCLC): > 100 µM
- TGI (ACHN renal): > 100 µM
- TGI (BT-549 breast): > 100 µM
- TGI (CAKI-1 renal): > 100 µM
- TGI (CCRF-CEM leukemia): > 100 µM
- TGI (COLO 205 colon): > 100 µM
- TGI (DU-145 prostate): > 100 µM
- TGI (EKVX NSCLC): > 100 µM
- TGI (HCC-2998 colon): > 100 µM
- TGI (HCT-116 colon): > 100 µM
- TGI (HCT-15 colon): > 100 µM
- TGI (HOP-62 NSCLC): > 100 µM
- TGI (HOP-92 NSCLC): > 100 µM
- TGI (HS 578T breast): > 100 µM
- TGI (IGROV1 ovarian): > 100 µM
- TGI (K-562 leukemia): > 100 µM
- TGI (KM12 colon): > 100 µM
- TGI (M14 melanoma): > 100 µM
- TGI (MALME-3M melanoma): > 100 µM
- TGI (MCF7 breast): > 100 µM
- TGI (MDA-MB-231 breast): > 100 µM
- TGI (MDA-MB-435): > 100 µM
- TGI (MDA-N): > 100 µM
- TGI (MOLT-4 leukemia): > 100 µM
- TGI (NCI-H226 lung): > 100 µM
- TGI (NCI-H23 lung): > 100 µM
- TGI (NCI-H460 lung): > 100 µM
- TGI (NCI-H522 lung): > 100 µM
- TGI (NCI/ADR-RES ovarian): > 100 µM
- TGI (OVCAR-3 ovarian): > 100 µM
- TGI (OVCAR-4 ovarian): > 100 µM
- TGI (OVCAR-5 ovarian): > 100 µM
- TGI (PC-3 prostate): > 100 µM
- TGI (RPMI-8226 leukemia): > 100 µM
- TGI (RXF 393 renal): > 100 µM
- TGI (SF-268 CNS): > 100 µM
- TGI (SF-295 CNS): > 100 µM
- TGI (SF-539 CNS): > 100 µM
- TGI (SK-MEL-2 melanoma): > 100 µM
- TGI (SK-MEL-28 melanoma): > 100 µM
- TGI (SK-MEL-5 melanoma): > 100 µM
- TGI (SK-OV-3 ovarian): > 100 µM
- TGI (SN12C renal): > 100 µM
- TGI (SNB-19 CNS): > 100 µM
- TGI (SNB-75 CNS): > 100 µM
- TGI (SR leukemia): > 100 µM
- TGI (SW-620 colon): > 100 µM
- TGI (T-47D breast): > 100 µM
- TGI (TK-10 renal): > 100 µM
- TGI (U251 CNS): > 100 µM
- TGI (UACC-257 melanoma): > 100 µM
- TGI (UACC-62 melanoma): > 100 µM
- TGI (UO-31 renal): > 100 µM
